According to the NIST ThermoML archive (doi:10.1016/j.jct.2012.09.011):

Test: cn = amount concentration of the nth substance listed, in mol/dm3
Details: 310.15 K, 101 kPa, Liquid, Taylor dispersion method

[Cl][Cd][Cl] [cadmium chloride] + O
binary diffusion coefficient (c1 = 0): 1.39e-09 m2/s
binary diffusion coefficient (c1 = 0.001): 1.34e-09 m2/s
binary diffusion coefficient (c1 = 0.003): 1.32e-09 m2/s
binary diffusion coefficient (c1 = 0.005): 1.28e-09 m2/s
binary diffusion coefficient (c1 = 0.008): 1.28e-09 m2/s
binary diffusion coefficient (c1 = 0.01): 1.28e-09 m2/s
binary diffusion coefficient (c1 = 0.05): 1.2e-09 m2/s
binary diffusion coefficient (c1 = 0.1): 1.2e-09 m2/s
binary diffusion coefficient (c1 = 0.4): 1.26e-09 m2/s
